{"source": "patent US11014961B2", "about": "“Self-labeling miniproteins and conjugates comprising them” (priority 2017, dated 2021)", "key": {"[1]": {"test": "Second order rate constant of the reaction between miniprotein (MP) and capture agent (CA), LC-MS TIC peak integration", "format": "biochemical", "conditions": "for Rate: Table 4, reaction rates of self-labeling miniprotein sequences; for reactivity with the CA (in words): standard reaction conditions; for Second order rate constant: 0.1 mM MP, 0.5 mM CA"}, "proteinase K": {"target": "T1, proteinase K (Parengyodontium album, UniProt P06873)", "T1 construct": "purchased Amresco", "T1 sequence (P06873 106-384)": "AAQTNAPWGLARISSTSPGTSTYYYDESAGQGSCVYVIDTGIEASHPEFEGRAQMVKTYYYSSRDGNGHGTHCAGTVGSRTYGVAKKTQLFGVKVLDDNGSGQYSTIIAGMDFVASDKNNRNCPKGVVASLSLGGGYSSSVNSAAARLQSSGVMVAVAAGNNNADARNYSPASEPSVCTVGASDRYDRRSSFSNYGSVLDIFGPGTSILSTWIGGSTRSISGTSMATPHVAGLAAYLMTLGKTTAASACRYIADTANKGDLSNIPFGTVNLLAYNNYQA", "test": "Protease digestion with proteinase K (LC-MS fraction remaining)", "format": "in vitro ADME", "conditions": "100 μM peptide, with 10×CA (1 mM CA)", "protocol": "Reactions were performed using 100 μM peptide with […] of proteinase K for general cleavage with the addition of 1 mM CA for C11A and C11S digestions. Reactions were quenched with 49.75% water, 49.75% ACN and 0.5% TFA at selection time point and analyzed by LCMS. TIC-based integrated peak areas were used to determine the amount of material in a given time point normalized to the starting amount. These normalized values there then concerted to fraction remaining and plotted as shown."}, "[2]": {"test": "Thermal melting followed by circular dichroism at 222 nm", "format": "physicochemical", "conditions": "CD at 222 nm", "protocol": "All experiments were performed at room temperature (˜23.5° C.) using a Jasco J-1500 spectrometer at MIT's Biophysical Instrumentation Facility (BIF). General conditions used were 10 mM sodium phosphate buffer at pH 7.45 with 5 mM TCEP (if a cysteine was present) with 50 μM peptide. CD measurements with C11S and C11A versions of Gen4 (SEQ ID NOs: 138 and 137, respectively) used the same conditions, without TCEP but with varying amount of CA (50 μM up to 500 μM depending on the desired mole ratio). Temperature melt data was obtained using a 0.5° C./minute ramp with data collected at 222 nm. […] For CD of Gen 1 (MP01; SEQ ID NO: 13), Gen1 H19L (MP01-H19L; SEQ ID NO: 62), Gen1 3 ala (MP01-T8/D10/S14A; SEQ ID NO: 69), Gen2 (MP01-Gen2; SEQ ID NO: 71) and Gen3_1 (MP01-Gen3_1; Gen 2-A17E; SEQ ID NO: 116) in their labeled and nonlabeled states, data was obtained in 12.5 mM HEPES, 50 mM NaCl, 2.5 mM MgCl2 and 2.5 mM CaCl2 at pH 7.45 with 5 mM TCEP at 50 µM peptide with or without ˜55 μM CA that had reacted for ˜2 days at room temperature. The CA labeled versions were not purified post reaction and were analyze in their reaction mixture.\nLacking an apparent cysteine pKa modulation, the basis for Gen4's high reactivity again came into question. Both C11A (SEQ ID NO: 134) and C11S (SEQ ID NO: 135) variants were synthesized and assayed them for CA-mediated structural alteration via CD. […]"}, "[3]": {"conditions": "5 mM TCEP, 1× selection buffer pH 7.4, RT"}, "[4]": {"conditions": "5 mM TCEP, 1× selection buffer pH 7.4, RT, a: average of three MP concentrations, c: labeled 1-3 times, d: labeled 1-2 times"}}, "note": "No end group written: not given here.", "data": [{"substance": "MLFMRLTKKTMATKFCPFRRKRKHRERRALYG-NH2 [MP27]", "values": [{"measurement": "Rate", "setting": "[1]", "value": 0.61, "unit": "M⁻¹ s⁻¹"}]}, {"substance": "MNGHYPCYLITSVLVGATTSGVPVVVHLRVG-NH2 [MP17]", "values": [{"measurement": "Rate", "setting": "[1]", "value": 0.11, "unit": "M⁻¹ s⁻¹"}]}, {"substance": "MNQKYKMAKAAFFAFLEHLKKRKLYPMSG-NH2 [Gen4(C11A)]", "values": [{"measurement": "protease stability in presence of CA (noncovalent)", "setting": "proteinase K", "value": "improved protease stability"}]}, {"substance": "MNQKYKMAKACFFAFLAHLKKRKLYPMSG-NH2 [Gen3_2]", "values": [{"measurement": "reactivity with the CA (in words)", "setting": "[1]", "value": "increased the rate of reaction"}]}, {"substance": "MNQKYKMAKACFFAFLEHLKKRKLYPMSG-NH2 [MP01-Gen4]", "values": [{"measurement": "thermal melting behaviour (in words)", "setting": "[2]; 4-95° C.", "value": "broad, gradually increasing trend"}, {"measurement": "reactivity relative to a random cysteine containing peptide", "setting": "[1]", "value": "~4×10^3 times"}, {"measurement": "second order rate constant relative to the initial MP01 scaffold", "setting": "[1]", "value": "~100", "unit": "times"}, {"measurement": "reaction rate with ammonium sulfate", "setting": "[1]; 2 μM ammonium sulfate (so in the source)", "value": 3.9, "unit": "M⁻¹ s⁻¹"}, {"measurement": "reaction rate with sodium chloride", "setting": "[1]; 2 μM sodium chloride (so in the source)", "value": 6.1, "unit": "M⁻¹ s⁻¹"}, {"measurement": "reactivity under denaturant guanidinium chloride", "setting": "[1]; 2-3 M guanidinium chloride, pH 7.45", "value": "near complete ablation of reactivity"}, {"measurement": "rate constant with TMAO", "setting": "[1]; trimethylamine N-oxide (TMAO) at 0.5 μM (so in the source)", "value": "~9.7", "unit": "M⁻¹ s⁻¹"}, {"measurement": "rate constant with TMAO", "setting": "[1]; trimethylamine N-oxide (TMAO) at 1 μM (so in the source)", "value": "~7.5", "unit": "M⁻¹ s⁻¹"}]}, {"substance": "MNQKYKMAKASFFAFLEHLKKRKLYPMSG-NH2 [Gen4(C11S)]", "values": [{"measurement": "protease stability in presence of CA (noncovalent)", "setting": "proteinase K", "value": "improved protease stability"}, {"measurement": "thermal melting behaviour (in words) with CA", "setting": "[2]; 50 μM peptide with 10×CA (500 μM)", "value": "gradually increasing CD signal albeit with a shift to higher temperatures"}]}, {"substance": "MNRIFHKRSTYQMVFGRCSDFTSTYHVLISYG-NH2 [MP25]", "values": [{"measurement": "Rate", "setting": "[1]", "value": 0.25, "unit": "M⁻¹ s⁻¹"}]}, {"substance": "MPNYGPLSPSQPSHGYTFWMVPIWDNSHNAAG-NH2 [MP02]", "values": [{"measurement": "Second order rate constant", "setting": "[1]; footnote b: construct with the full length C-terminal region (-SGSLGHHHHHHRL)", "value": "No Reaction^b"}, {"measurement": "reactivity with the CA (in words)", "setting": "[1]", "value": "did not react"}]}, {"substance": "MQHEDLCTWYGFCPSGNFTPRNLRGDSDG [MP08]", "values": [{"measurement": "Second order rate constant", "setting": "[1]; [3]", "value": 0.04, "unit": "M⁻¹ s⁻¹"}, {"measurement": "Second order rate constant", "setting": "[1]; [4]", "value": "0.04^d M^−1 s^−1"}]}, {"substance": "MQNSKHRPRRCLRLLPLLRGHLHRMFRERG-NH2 [MP21]", "values": [{"measurement": "Rate", "setting": "[1]", "value": 2.00, "unit": "M⁻¹ s⁻¹"}]}, {"substance": "MRHYHLTCFQGFRIFRRTVDSLEMEISLG-NH2 [MP18]", "values": [{"measurement": "Rate", "setting": "[1]", "value": 0.17, "unit": "M⁻¹ s⁻¹"}]}, {"substance": "MRPCARRDRTLWCPFDSPAWFLLSGFSCG [MP05]", "values": [{"measurement": "Second order rate constant", "setting": "[1]; [3]", "value": "0.93 ± 0.11", "unit": "M⁻¹ s⁻¹"}, {"measurement": "Second order rate constant", "setting": "[1]; [4]", "value": "0.93 ± 0.11^c M^−1 s^−1"}]}, {"substance": "MRRTPSTRARGRVFLLPTLRFFITLCNLNG-NH2 [MP24]", "values": [{"measurement": "Rate", "setting": "[1]", "value": 0.02, "unit": "M⁻¹ s⁻¹"}]}, {"substance": "MRSTHQRVRRPRNLCSFKHKWLIKFLKTLTG-NH2 [MP22]", "values": [{"measurement": "Rate", "setting": "[1]", "value": 4.94, "unit": "M⁻¹ s⁻¹"}]}, {"substance": "MRTPIKFAPRLSQPFCPFRKQHQLHLHPLIEG-NH2 [MP04]", "values": [{"measurement": "Second order rate constant", "setting": "[1]; [4]", "value": "0.24 ± 0.01", "unit": "M⁻¹ s⁻¹"}]}, {"substance": "MRYIYVLRLKSWCGGASARSSPRSCATKLLG [MP09]", "values": [{"measurement": "Second order rate constant", "setting": "[1]; [4]", "value": "0.52 ± 0.01^d M^−1 s^−1"}, {"measurement": "initial rate (biphasic kinetics)", "setting": "[1]; standard conditions, en route to being labeled twice", "value": 0.52, "unit": "M⁻¹ s⁻¹"}]}, {"substance": "MSSGTHYGILNMVIRCHLVKNQTSQMVVLTTG-NH2 [MP14]", "values": [{"measurement": "Rate", "setting": "[1]", "value": 0.12, "unit": "M⁻¹ s⁻¹"}]}, {"substance": "MTATSSSTSRGCRPSTAQVVQRLRGLLLVVG-NH2 [MP26]", "values": [{"measurement": "Rate", "setting": "[1]", "value": 0.07, "unit": "M⁻¹ s⁻¹"}]}, {"substance": "MTSVTASLLMHFCPIRAHITNKPSFNPSG-NH2 [MP03]", "values": [{"measurement": "Second order rate constant", "setting": "[1]; [4]", "value": 0.04, "unit": "M⁻¹ s⁻¹"}]}, {"substance": "MVKLSGKERTTRNCFFSFLASRRTKKFNNLSG-NH2 [MP12]", "values": [{"measurement": "Rate", "setting": "[1]", "value": 0.23, "unit": "M⁻¹ s⁻¹"}]}]}
